From patent EP2246329A1, “4(1H)-pyridinone derivatives and their use as antimalaria agents” (Glaxo Group Limited, priority 2009, dated 2010)
Where a name gives a salt, the structure may show the parent alone.

What follows are compounds tested on Plasmodium falciparum (assay: In vitro anti-malarial activity against Plasmodium falciparum, IC50 assay / [3H]-Hypoxanthine incorporation assay). Details: Erythrocyte; Plasmodium falciparum strains in parasitized red blood cells, [3H]-hypoxanthine incorporation, 48 hours at 37°C.
Format: cell-based
Method: The compounds of this invention may be tested in one of several biological assays to determine the concentration of compound which is required to have a given pharmacological effect. In vitro anti-malarial activity against Plasmodium falciparum. IC50 assay / [^3H]-Hypoxanthine assay
The culture medium comprised RPMI 1640 with 25mM HEPES, sodium bicarbonate and glutamine (GIBCO™ cat. ref.: 52400), supplemented with 10% of pooled human sera AB (Irvine Scientific, cat. ref.: 5009) and HT supplement (0.15 mM hypoxanthine and 24 µM thymidine), (GIBCO™ cat. ref.: 41065). Human sera were decomplemented 30 min. at 56°C, aliquoted and stored frozen at -20°C until use in this culture medium.
This culture medium ("complete medium") was usually prepared fresh just before use and pre-warmed to 37°C.
Red blood cells O+ stock suspensions were prepared from whole blood bags coming from incomplete blood donation, provided by the Spanish Red Cross (<25 days after sampling). This "whole blood" was aliquoted and stored at 4°C.
To prepare red blood cells for the assay, the whole blood was centrifuged and washed 3 times with RPMI without serum. The upper phase, containing white blood cells was removed. The washed red blood cells were kept as a 50 % suspension in complete medium. The prepared cells were stored at 4°C and were employed in the assay at any time up to 4 days after preparation.
Test compounds were dissolved at 2 mg/ml in 100% DMSO on the day of the assay. If necessary, complete dissolution was achieved by gentle heating (the mixture was heated at a temperature <37°C) and sonication (sonication bath).
For IC50 determinations, 10 serial 2-fold dilutions were prepared in complete medium in the presence of a constant amount of DMSO. Any obvious signs of insolubility of the stock solutions in 100% DMSO or precipitation when these solutions were diluted in assay media, were recorded.
Plasmodium falciparum strains were maintained in complete medium at an hematocrit of 5% in continuous culture using a method adapted from that published by Trager and Jensen(1) and Traeger(2).
The parasitemia was calculated by counting the percentage of parasitized erythrocytes by optical microscopy. Thin films of blood were made every day from each culture flask, fixed with methanol and stained for 10 min. in Giemsa (Merck, cat. ref.: 1.09204) at 10 % in buffered water pH 7.2. The glass slides were observed and counted with an optical microscope (Nikon, Eclipse E200) equipped with a 100 X immersion oil objective.
The culture was maintained at an hematocrit of 5%, with a daily change of medium and was diluted when parasitemia had reached about 5%.
[^3H] Hypoxanthine incorporation assay was conducted using a method adapted from Desjardins et al. (3). The assays were performed in 96 wells flat bottom microplates. • 1. Serial dilutions of the test compounds (50µl of a 5X solution / well) were deposited in duplicate. Compounds of the invention were tested in this assay. Chloroquine and Atovaquone were used as control compounds for each assay. • 2. […] [^3H]-Hypoxanthine (Amersham Biosciences, cat. ref.: TRK74) was added extemporaneously to the inoculum suspension at a concentration of 1 µCi/ml (equating to […]). 200 µl of the resulting suspension was distributed into each well (other than the control well H12 described below) leading to a final volume of 250 µl per well, at 2% of hematocrit and 0.5 % of parasitemia / well. • 4. […]

SMILES	IC50
Cc1[nH]c(C)c(-c2ccc(C#CCN3CCC(c4ccc(OC(F)(F)F)cc4)CC3)cc2)c(=O)c1Cl.Cl [Example 11, 3-Chloro-2,6-dimethyl-5-{4-[3-(4-{4-[(trifluoromethyl)oxy]phenyl}-1-piperidinyl)-1-propyn-1-yl]phenyl}-4(1H)-pyridinone hydrochloride]	< 0.125 µg/mL
CCCN(CC#Cc1ccc(-c2c(C)[nH]c(C)c(Cl)c2=O)cc1)Cc1ccc(OC(F)(F)F)cc1.Cl [Example 21, 3-Chloro-2,6-dimethyl-5-(4-{3-[propyl({4-[(trifluoromethyl)oxy]phenyl}methyl)amino]-1-propyn-1-yl}phenyl)-4(1H)-pyridinone hydrochloride]	< 0.125 µg/mL
Cc1[nH]c(C)c(-c2ccc(C#CCN(C)Cc3ccccc3C(F)(F)F)cc2)c(=O)c1Cl [Example 3, 3-Chloro-2,6-dimethyl-5-{4-[3-(methyl{[2-(trifluoromethyl)phenyl]methyl}amino)-1-propyn-1-yl]phenyl}-4(1H)-pyridinone]	< 0.125 µg/mL
Cc1[nH]c(C)c(-c2ccc(-c3ccc(CN4CCC(c5ccc(OC(F)(F)F)cc5)CC4)cc3)cc2)c(=O)c1Cl.Cl [Example 33, 3-Chloro-2,6-dimethyl-5-{4'-[(4-{4-[(trifluoromethyl)oxy]phenyl}-1-piperidinyl)methyl]-4-biphenylyl}-4(1H)-pyridinone hydrochloride]	< 0.125 µg/mL
Cc1[nH]c(C)c(-c2ccc(C#CCN(C)Cc3cccn3C)cc2)c(=O)c1Cl.Cl [Example 44, 3-Chloro-2,6-dimethyl-5-[4-(3-{methyl[(1-methyl-1H-pyrrol-2-yl)methyl]amino}-1-propyn-1-yl)phenyl]-4(1H)-pyridinone hydrochloride]	< 0.125 µg/mL
CC(=O)Oc1c(Cl)c(C)nc(C)c1-c1ccc(-c2ccc(CN3CCC(c4ccc(OC(F)(F)F)cc4)CC3)cc2)cc1.Cl [Example 56, 3-Chloro-2,6-dimethyl-5-{4'-[(4-{4-[(trifluoromethyl)oxy]phenyl}-1-piperidinyl)methyl]-4-biphenylyl}-4-pyridinyl acetate hydrochloride]	< 0.125 µg/mL
Cc1[nH]c(C)c(-c2ccc(C#CCN(C)Cc3ccc(S(C)(=O)=O)cc3)cc2)c(=O)c1Cl.Cl [Example 47, 3-Chloro-2,6-dimethyl-5-{4-[3-(methyl{[4-(methylsulfonyl)phenyl]methyl}amino)-1-propyn-1-yl]phenyl}-4(1H)-pyridinone hydrochloride]	< 0.125 µg/mL
Cc1[nH]c(C)c(-c2ccc(C#CCN(C)Cc3ccc(OC(F)(F)F)cc3)cc2)c(=O)c1Cl [Example 1, 3-Chloro-2,6-dimethyl-5-(4-{3-[methyl({4-[(trifluoromethyl)oxy]phenyl}methyl)amino]-1-propyn-1-yl}phenyl)-4(1H)-pyridinone]	< 0.125 µg/mL
Cc1[nH]c(C)c(-c2ccc(C#CCN(C)Cc3ccc(C(F)(F)F)cc3C(F)(F)F)cc2)c(=O)c1Cl [Example 4, 3-(4-{3-[{[2,4-Bis(trifluoromethyl)phenyl]methyl}(methyl)amino]-1-propyn-1-yl}phenyl)-5-chloro-2,6-dimethyl-4(1H)-pyridinone]	< 0.125 µg/mL
Cc1[nH]c(C)c(-c2ccc(C#CCN3CCc4cc(C(F)(F)F)ccc4C3)cc2)c(=O)c1Cl.Cl [Example 14, 3-Chloro-2,6-dimethyl-5-(4-(3-[6-(trifluoromethyl)-3,4-dihydro-2(1H)-isoquinolinyl]-1-propyn-1-yl}phenyl)-4(1H)-pyridinone hydrochloride]	< 0.125 µg/mL
Cc1[nH]c(C)c(-c2ccc(C#CCN3CCC(c4ccc(OC(F)(F)F)cc4)CC3)cc2)c(=O)c1Cl.O=C(O)C(F)(F)F [Example 22, 3-Chloro-2,6-dimethyl-5-{4-[3-(4-{4-[(trifluoromethyl)oxy]phenyl}-1-piperidinyl)-1-propyn-1-yl]phenyl}-4(1H)-pyridinone trifluoroacetate]	< 0.125 µg/mL
Cc1[nH]c(C)c(-c2ccc(-c3cccc(CN(C)Cc4ccc(OC(F)(F)F)cc4)c3)cc2)c(=O)c1Cl.Cl [Example 34, 3-Chloro-2,6-dimethyl-5-(3'-{[methyl({4-[(trifluoromethyl)oxy]phenyl}methyl)amino]methyl}-4-biphenylyl)-4(1H)-pyridinone hydrochloride]	< 0.125 µg/mL
Cc1[nH]c(C)c(-c2ccc3sc(CN(C)Cc4ccc(OC(F)(F)F)cc4)cc3c2)c(=O)c1Cl.Cl [Example 31, 3-Chloro-2,6-dimethyl-5-(2-{[methyl({4-[(trifluoromethyl)oxy]phenyl}methyl)amino]methyl}-1-benzothien-5-yl)-4(1H)-pyridinone hydrochloride]	< 0.125 µg/mL
Cc1ccc(CN(C)CC#Cc2ccc(-c3c(C)[nH]c(C)c(Cl)c3=O)cc2)s1.Cl [Example 42, 3-Chloro-2,6-dimethyl-5-[4-(3-{methyl[(5-methyl-2-thienyl)methyl]amino}-1-propyn-1-yl)phenyl]-4(1H)-pyridinone hydrochloride]	< 0.125 µg/mL
Cc1[nH]c(C)c(-c2ccc(C#CCN(C)Cc3nccs3)cc2)c(=O)c1Cl.Cl [Example 43, 3-Chloro-2,6-dimethyl-5-(4-{3-[methyl(1,3-thiazol-2-ylmethyl)amino]-1-propyn-1-yl}phenyl)-4(1H)-pyridinone hydrochloride]	< 0.125 µg/mL
Cc1[nH]c(C)c(-c2ccc(C#CCN(C)Cc3ccc(OC(F)(F)F)cc3)cc2)c(=O)c1Cl.Cl [Example 19, 3-Chloro-2,6-dimethyl-5-(4-{3-[methyl({4-[(trifluoromethyl)oxy]phenyl}methyl)amino]-1-propyn-1-yl}phenyl)-4(1H)-pyridinone hydrochloride]	< 0.125 µg/mL
Cc1[nH]c(C)c(-c2ccc(C#CCN(Cc3ccccc3)Cc3ccccc3)cc2)c(=O)c1Cl.Cl [Example 12, 3-(4-{3-[Bis(phenylmethyl)amino]-1-propyn-1-yl}phenyl)-5-chloro-2,6-dimethyl-4(1H)-pyridinone hydrochloride]	< 0.125 µg/mL
Cc1[nH]c(C)c(-c2ccc(-c3ccc(CN(C)Cc4ccc(OC(F)(F)F)cc4)s3)cc2)c(=O)c1Cl.O=C(O)C(F)(F)F [Example 26, 3-Chloro-2,6-dimethyl-5-[4-(5-{[methyl({4-[(trifluoromethyl)oxy]phenyl}methyl)amino]-methyl}-2-thienyl)phenyl] -4(1H)-pyridinone trifluoroacetate]	< 0.125 µg/mL
Cc1[nH]c(C)c(-c2ccc(CN(C)Cc3ccc(OC(F)(F)F)cc3)cc2)c(=O)c1Cl.Cl [Example 23, 3-Chloro-2,6-dimethyl-5-(4-{[methyl({4-[(trifluoromethyl)oxy]phenyl}methyl)amino]-methyl}phenyl)-4(1H)-pyridinone hydrochloride]	< 0.125 µg/mL
Cc1[nH]c(CO)c(-c2ccc(-c3ccc(CN4CCC(c5ccc(OC(F)(F)F)cc5)CC4)cc3)cc2)c(=O)c1Cl [Example 61, 3-chloro-6-(hydroxymethyl)-2-methyl-5-{4'-[(4-{4-[(trifluoromethyl)oxy]phenyl}-1-piperidinyl)methyl]-4-biphenylyl}-4(1H)-pyridinone]	< 0.125 µg/mL

Same assay, conditions: Plasmodium falciparum, Erythrocyte

SMILES	IC50
Cc1[nH]c(C)c(-c2ccc(CCCN3CCC(c4ccc(OC(F)(F)F)cc4)CC3)cc2)c(=O)c1Cl [Example 52, 3-Chloro-2,6-dimethyl-5-{4-[3-(4-{4-[(trifluoromethyl)oxy]phenyl}-1-piperidinyl)propyl]phenyl}-4(1H)-pvridinone hydrochloride]	< 0.125 µg/mL
